According to ChEMBL document CHEMBL5325501, “Discovery of BWA-522, a First-in-Class and Orally Bioavailable PROTAC Degrader of the Androgen Receptor Targeting N-Terminal Domain for the Treatment of Prostate Cancer” (J Med Chem, 2023):
The source made the active and inactive calls. The rule behind the calls is not given here.

What was measured:
[1] = Downregulation of FKBP51 protein level in human LNCaP cells at 10 uM incubated for 48 hrs by Western blot analysis relative to control; format: functional
[2] = system: LNCaP; experiment: Antitumor activity against human LNCaP cells xenografted in NOD SCID mouse assessed as inhibition of tumor volume at 20 to 60 mg/kg, po administered daily for 4 weeks; format: functional, organism-based; conditions: dose 20-60 mg/kg
[3] = Metabolic stability in human liver microsomes assessed as half-life at 2 uM preincubated for 10 mins in the presence of NADPH followed by compound addition and measured after 60 mins by LC-MS/MS analysis; format: ADME, Microsome
[4] = system: VCaP; experiment: Antiproliferative activity against AR-dependent human VCaP cells assessed as reduction in cell viability at 3 to 10 uM incubated for 6 days by CCK-8 assay; format: functional, cell-based; conditions: dose 3-10 µM, time 6.0 day
[5] = Toxicity in ICR mouse assessed as testicle damage at 20 to 60 mg/kg, po administered daily for 14 days; format: organism-based; conditions: in vivo, 336 h, dose 20-60 mg/kg, time 14 day
[6] = system: LNCaP; experiment: Antiproliferative activity against human LNCaP cells assessed as reduction in cell viability incubated for 6 days by CCK-8 assay; format: functional, cell-based; conditions: 144 h
[7] = biological target: Voltage-gated inwardly rectifying potassium channel KCNH2 (Homo sapiens, UniProt Q12809); experiment: Inhibition of hERG in HEK293 cells by whole-cell manual patch clamp technique; format: toxicity, cell-based
Sequence of Voltage-gated inwardly rectifying potassium channel KCNH2 (Q12809 whole entry): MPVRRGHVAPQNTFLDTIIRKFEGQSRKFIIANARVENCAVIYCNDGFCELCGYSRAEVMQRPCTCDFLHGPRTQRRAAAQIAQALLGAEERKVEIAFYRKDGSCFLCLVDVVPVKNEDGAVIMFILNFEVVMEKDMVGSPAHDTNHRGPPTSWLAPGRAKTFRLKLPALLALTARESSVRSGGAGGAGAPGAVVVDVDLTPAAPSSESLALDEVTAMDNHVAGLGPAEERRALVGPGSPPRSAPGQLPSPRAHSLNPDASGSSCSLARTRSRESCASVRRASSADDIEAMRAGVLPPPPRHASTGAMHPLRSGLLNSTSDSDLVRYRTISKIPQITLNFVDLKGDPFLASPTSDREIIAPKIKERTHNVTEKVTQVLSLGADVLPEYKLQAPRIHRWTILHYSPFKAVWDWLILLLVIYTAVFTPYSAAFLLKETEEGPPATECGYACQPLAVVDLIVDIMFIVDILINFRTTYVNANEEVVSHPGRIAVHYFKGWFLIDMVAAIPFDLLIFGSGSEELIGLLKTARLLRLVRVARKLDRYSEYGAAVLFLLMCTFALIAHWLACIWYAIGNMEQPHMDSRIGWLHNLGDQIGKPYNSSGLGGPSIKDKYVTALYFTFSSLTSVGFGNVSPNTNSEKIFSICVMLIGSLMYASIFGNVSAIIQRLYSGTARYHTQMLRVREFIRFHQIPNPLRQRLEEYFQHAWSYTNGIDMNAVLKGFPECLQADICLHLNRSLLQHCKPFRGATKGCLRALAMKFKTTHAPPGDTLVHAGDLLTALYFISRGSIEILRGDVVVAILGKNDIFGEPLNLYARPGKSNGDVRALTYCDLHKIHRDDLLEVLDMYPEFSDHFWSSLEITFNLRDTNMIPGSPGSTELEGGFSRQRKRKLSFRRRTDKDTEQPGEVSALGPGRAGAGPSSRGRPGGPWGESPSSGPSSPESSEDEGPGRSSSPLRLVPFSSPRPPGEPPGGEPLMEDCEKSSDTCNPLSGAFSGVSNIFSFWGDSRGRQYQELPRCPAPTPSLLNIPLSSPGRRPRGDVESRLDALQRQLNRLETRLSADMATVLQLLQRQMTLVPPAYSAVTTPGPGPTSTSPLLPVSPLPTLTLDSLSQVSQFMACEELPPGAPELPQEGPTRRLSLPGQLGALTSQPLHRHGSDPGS

[8] = Cmax in beagle dog at 1 mg/kg, iv measured by LC-MS/MS analysis; format: ADME, organism-based, Canis lupus familiaris; design: dose 1 mg/kg, route iv; conditions: in vivo
[9] = system: RWPE-1; experiment: Cytotoxicity against human RWPE-1 cells assessed as reduction in cell viability incubated for 6 days by CCK8 assay; format: toxicity, cell-based; conditions: rwpe-1, 144 h, time 6 day
[10] = Half-life in ICR mouse at 10 mg/kg, po measured by LC-MS/MS analysis; format: ADME, organism-based; conditions: in vivo
[11] = Clearance in ICR mouse at 2 mg/kg, iv measured by LC-MS/MS analysis; format: ADME, organism-based; conditions: in vivo
[12] = Oral bioavailability in beagle dog at 5 mg/kg measured by LC-MS/MS analysis; format: ADME, organism-based, Canis lupus familiaris; conditions: in vivo
[13] = Downregulation of TMPRSS2 protein level in human VCaP cells at 10 uM incubated for 48 hrs by Western blot analysis relative to control; format: functional
[14] = Metabolic stability in human liver microsomes assessed as parent compound remaining at 2 uM preincubated for 10 mins in the presence of NADPH followed by compound addition and measured after 60 mins by LC-MS/MS analysis; format: ADME, Microsome; conditions: read-out: Stability
[15] = Stability in human plasma assessed as parent compound remaining measured immediately by LC-MS/MS analysis; format: ADME, cell-free; conditions: read-out: Stability
[16] = Downregulation of FKBP51 protein level in human VCaP cells at 10 uM incubated for 48 hrs by Western blot analysis relative to control; format: functional
[17] = system: LNCaP; experiment: Antitumor activity against human LNCaP cells xenografted in NOD SCID mouse assessed as tumor growth inhibition at 20 mg/kg, po administered daily for 4 weeks relative to control; format: functional; conditions: 672 h, read-out: TGI
[18] = Stability in human plasma assessed as parent compound remaining measured after 30 mins by LC-MS/MS analysis; format: ADME, cell-free; conditions: read-out: Stability
[19] = system: DU-145; experiment: Antiproliferative activity against AR-independent human DU-145 cells assessed as reduction in cell viability at 10 uM incubated for 6 days by CCK-8 assay; format: functional, cell-based; conditions: time 6.0 day
[20] = system: CWR22R; experiment: Inhibition of colony formation in human 22Rv1 cells incubated for 2 weeks by crystal violet staining based analysis; format: functional, cell-based; conditions: dose 1-10 µM
[21] = Half-life in beagle dog at 5 mg/kg, po measured by LC-MS/MS analysis; format: ADME, organism-based, Canis lupus familiaris; conditions: in vivo
[22] = Toxicity in ICR mouse assessed as lung damage at 20 to 60 mg/kg, po administered daily for 14 days; format: organism-based; conditions: in vivo, 336 h, dose 20-60 mg/kg, time 14 day
[23] = Oral bioavailability in ICR mouse at 10 mg/kg measured by LC-MS/MS analysis; format: ADME, organism-based; conditions: in vivo
[24] = system: VCaP; experiment: Antiproliferative activity against human VCaP cells assessed as reduction in cell viability incubated for 6 days by CCK-8 assay; format: functional, cell-based; conditions: 144 h
[25] = Tmax in ICR mouse at 2 mg/kg, iv measured by LC-MS/MS analysis; format: ADME, organism-based; conditions: in vivo
[26] = Cmax in ICR mouse at 10 mg/kg, po measured by LC-MS/MS analysis; format: ADME, organism-based; design: dose 10 mg/kg, route po; conditions: in vivo
[27] = Stability in mouse plasma assessed as parent compound remaining measured after 15 mins by LC-MS/MS analysis; format: ADME, cell-free; conditions: read-out: Stability
[28] = Toxicity in NOD SCID mouse xenografted with human LNCaP cells assessed as body weight loss at 20 to 60 mg/kg, po administered daily for 4 weeks; format: organism-based; conditions: in vivo, 672 h, dose 20-60 mg/kg
[29] = system: LNCaP; experiment: Antitumor activity against human LNCaP cells xenografted in NOD SCID mouse assessed as reduction in tumor weight at 20 to 60 mg/kg, po administered daily for 4 weeks; format: functional, organism-based; conditions: dose 20-60 mg/kg
[30] = Half-life in beagle dog at 1 mg/kg, iv measured by LC-MS/MS analysis; format: ADME, organism-based, Canis lupus familiaris; conditions: in vivo
[31] = Toxicity in ICR mouse assessed as body weight loss at 20 to 60 mg/kg, po administered daily for 14 days; format: organism-based; conditions: in vivo, 336 h, dose 20-60 mg/kg, time 14 day
[32] = system: LNCaP; experiment: Antiproliferative activity against AR-dependent human LNCaP cells assessed as reduction in cell viability at 3 to 10 uM incubated for 6 days by CCK-8 assay; format: functional, cell-based; conditions: dose 3-10 µM, time 6.0 day
[33] = system: CWR22R; experiment: Antiproliferative activity against AR-dependent human 22Rv1 cells assessed as reduction in cell viability at 3 to 10 uM incubated for 6 days by CCK-8 assay; format: functional, cell-based; conditions: dose 3-10 µM, time 6.0 day
[34] = Tmax in beagle dog at 1 mg/kg, iv measured by LC-MS/MS analysis; format: ADME, organism-based, Canis lupus familiaris; conditions: in vivo
[35] = system: LNCaP; experiment: Induction of apoptosis in human LNCaP cells assessed as caspase-3 cleavage at 5 to 10 uM incubated for 48 hrs by Western blot analysis; format: functional, cell-based; conditions: dose 5-10 µM
[36] = Cmax in beagle dog at 5 mg/kg, po measured by LC-MS/MS analysis; format: ADME, organism-based, Canis lupus familiaris; design: dose 5 mg/kg, route po; conditions: in vivo
[37] = system: LNCaP; experiment: Inhibition of colony formation in human LNCaP cells incubated for 2 weeks by crystal violet staining based analysis; format: functional, cell-based; conditions: dose 1-10 µM
[38] = system: LNCaP; experiment: Downregulation of PSA protein level in human LNCaP cells incubated for 48 hrs by Western blot analysis; format: functional, cell-based; conditions: dose 1-10 µM
[39] = Metabolic stability in mouse liver microsomes assessed as parent compound remaining at 2 uM preincubated for 10 mins in the presence of NADPH followed by compound addition and measured after 60 mins by LC-MS/MS analysis; format: ADME, Microsome; conditions: read-out: Stability
[40] = Stability in mouse plasma assessed as parent compound remaining measured after 45 mins by LC-MS/MS analysis; format: ADME, cell-free; conditions: read-out: Stability
[41] = Tmax in beagle dog at 5 mg/kg, po measured by LC-MS/MS analysis; format: ADME, organism-based, Canis lupus familiaris; conditions: in vivo
[42] = Toxicity in ICR mouse assessed as kidney damage at 20 to 60 mg/kg, po administered daily for 14 days; format: organism-based; conditions: in vivo, 336 h, dose 20-60 mg/kg, time 14 day
[43] = Stability in human plasma assessed as parent compound remaining measured after 15 mins by LC-MS/MS analysis; format: ADME, cell-free; conditions: read-out: Stability
[44] = system: VCaP; experiment: Downregulation of TMPRSS2 protein level in human VCaP cells incubated for 48 hrs by Western blot analysis; format: functional, cell-based; conditions: dose 1-10 µM
[45] = Clearance in beagle dog at 1 mg/kg, iv measured by LC-MS/MS analysis; format: ADME, organism-based, Canis lupus familiaris; conditions: in vivo

With `CC(C)(c1ccc(OCC2CCN(CC3CCN(c4ccc5c(c4)C(=O)N(C4CCC(=O)NC4=O)C5=O)CC3)CC2)cc1)c1ccc(OC[C@H](O)CCl)cc1` (stereo not given in full) the Activity [1] was ~25%, the Activity [2] was “Active” and the half-life at 2 µM [3] was 3.12 h. For the same compound, the Activity [4] was “Active”, the Activity [5] was “Non-Toxic” and the IC50 [6] was 1.07 µM. For the same compound, the IC50 [7] was > 10 µM, the Cmax [8] was 150 ng/mL and the Activity [9] was “Non-Toxic”. The half-life [10] was 7.9 h, the clearance [11] was 9.9 mL/min/kg and the F [12] was 69.3%. The Activity [13] was ~40%, the remaining at 1 h, 2 µM [14] was 80.9% and the remaining at 0 min [15] was 100%. It also gave an Activity [16] of ~25%, an inhibition in vivo at 20 mg/kg [17] of 26% and a remaining at 0.5 h [18] of 92.1%. The Activity [19] was “inactive”, the inhibition [20] was “Dose-Dependent Effect” and the half-life [21] was 31.2 h. For the same compound, the Activity [22] was “Non-Toxic”, the bioavailability [23] was 40.5% and the IC50 [24] was 5.59 µM. The Tmax [25] was 6 min, the Cmax [26] was 376 ng/mL and the remaining at 0.25 h [27] was 88%. The Activity [28] was “Non-Toxic”, the Activity [29] was “Active” and the half-life [30] was 9.9 h. The Activity [31] was “Non-Toxic”, the Activity [32] was “Active” and the Activity [33] was “Active”. The Tmax [34] was 6 min, the Activity [35] was “Active” and the Cmax [36] was 97.3 ng/mL. The inhibition [37] was “Dose-Dependent Effect”, the Activity [38] was “Dose-Dependent Effect” and the remaining at 1 h, 2 µM [39] was 78.2%. The remaining at 0.75 h [40] was 102%, the Tmax [41] was 2.8 h and the Activity [42] was “Non-Toxic”. For the same compound, the remaining at 0.25 h [43] was 92.2%, the Activity [44] was “Dose-Dependent Effect” and the clearance [45] was 15.5 mL/min/kg.
